Results published in patent US20090270443A1, “1-AMINO IMIDAZO-CONTAINING COMPOUNDS AND METHODS” (priority 2004, published 2009).

| Structure (SMILES) | melting point [°C] |
| --- | --- |
| CCOCc1nc2c(N)nc3cccnc3c2n1NCc1ccccc1 [Example 34, N^1-Benzyl-2-ethxoymethyl-1H-imidazo[4,5-c][1,5]naphthyridine-1,4-diamine] | 169 to 171 |
| Nc1nc2cccnc2c2c1nc(CO)n2NCc1ccccc1 [Example 35, (4-Amino-1-benzylamino-1H-imidazo[4,5-c][1,5]naphthyridin-2-yl)methanol] | 237 to 239 |
| CCOCc1nc2cnc3cccnc3c2n1NC1CCOCC1 [Example 36, 2-Ethxoymethyl-N-(tetrahydro-2H-pyran-4-yl)-1H-imidazo[4,5-c][1,5]naphthyridin-1-amine] | 130 to 133 |
| OCc1nc2cnc3cccnc3c2n1NC1CCOCC1 [Example 38, [1-(Tetrahydro-2H-pyran-4-yl)amino-1H-imidazo[4,5-c][1,5]naphthyridin-2-yl]methanol] | 203 to 205 |
| CCOCc1nc2c(N)nc(C)c(C)c2n1NCc1ccc(Cl)c(Cl)c1 [Example 45, N^1-(3,4-Dichlorobenzyl)-2-ethoxymethyl-6,7-dimethyl-1H-imidazo[4,5-c]pyridine-1,4-diamine] | 186 to 188 |
| CCOCc1nc2c(N)nc(C)c(C)c2n1NCCCNC(=O)OCC [Example 49] | 148 to 150 |

The next lines start with the values.

| melting point [°C] | Structure (SMILES) |
| --- | --- |
| 177 to 179 | CCCc1nc2c(N)nc(C)c(C)c2n1NC1CCCCC1 [Example 33, N^1-Cyclohexyl-6,7-dimethyl-2-propyl-1H-imidazo[4,5-c]pyridine-1,4-diamine] |
| 191 to 193 | CCOCc1nc2c(N)nc3cccnc3c2n1NC1CCOCC1 [Example 37, 2-Ethxoymethyl-N^1-(tetrahydro-2H-pyran-4-yl)-1H-imidazo[4,5-c][1,5]naphthyridine-1,4-diamine] |
| 150 to 155 | CCOCc1nc2c(N)nc(C)c(C)c2n1NCCCS(C)(=O)=O [Example 39, 2-(Ethoxymethyl)-6,7-dimethyl-N^1-[3-(methylsulfonyl)propyl]-1H-imidazo[4,5-c]pyridine-1,4-diamine] |
| 127 to 131 | CCOCc1nc2c(N)nc(C)c(C)c2n1NC1CCN(S(C)(=O)=O)CC1 [Example 40, 2-(Ethoxymethyl)-6,7-dimethyl-N^1-[1-(methylsulfonyl)piperidin-4-yl]-1H-imidazo[4,5-c]pyridine-1,4-diamine] |
| 130 to 132 | CCOCc1nc2c(N)nc(C)c(C)c2n1NC1CCCC1 [Example 46, N^1-Cyclopentyl-2-ethoxymethyl-6,7-dimethyl-1H-imidazo[4,5-c]pyridine-1,4-diamine] |
| 254 to 256 | Cc1nc(N)c2nc(CO)n(NC3CCCC3)c2c1C [Example 47, (4-Amino-1-cyclopentylamino-6,7-dimethyl-1H-imidazo[4,5-c]pyridin-2-yl)methanol] |
| 191 to 193 | CCc1nc2c(N)nc(C)c(C)c2n1NC1CCOCC1 [Example 48, 2-Ethyl-6,7-dimethyl-N^1-(tetrahydropyran-4-yl)-1H-imidazo[4,5-c]pyridine-1,4-diamine] |
| 190 to 192 | Cc1nc(N)c2nc(CCO)n(NC3CCOCC3)c2c1C [Example 50, 2-[4-Amino-6,7-dimethyl-1-(tetrahydropyran-4-yl)amino-1H-imidazo[4,5-c]pyridin-2-yl]ethanol] |
| 110 to 120 | COCCc1nc2c(N)nc(C)c(C)c2n1NC1CCOCC1 [Example 51, 2-(2-Methoxyethyl)-6,7-dimethyl-N^1-(tetrahydropyran-4-yl)-1H-imidazo[4,5-c]pyridine-1,4-diamine] |
